Results: patent US6087334A, “Anti-diabetic peptides” (Amylin Pharmaceuticals, Inc., priority 1998, dated 2000)
Where a SMILES comes first, the peptide text is derived from it. Bridges are numbered along the chain shown (N, C = ends). The star is where a group is joined. Pentanoyl(4-Me) = CC(C)CCC(=O)*

Experiments:
[1] = biological target: T1, C1a receptor (C1a-type calcitonin receptor) (Rattus norvegicus, UniProt P32214); experiment: biochemical; conditions: HEK293 plasma membranes, [35S]-GTPγS 200 pM; read-out: ED50 (nM) Example B (C1a GTPγS)
T1 construct: expressed in transfected cells
T1 sequence (P32214 25-479 isoform P32214-2 limits assumed): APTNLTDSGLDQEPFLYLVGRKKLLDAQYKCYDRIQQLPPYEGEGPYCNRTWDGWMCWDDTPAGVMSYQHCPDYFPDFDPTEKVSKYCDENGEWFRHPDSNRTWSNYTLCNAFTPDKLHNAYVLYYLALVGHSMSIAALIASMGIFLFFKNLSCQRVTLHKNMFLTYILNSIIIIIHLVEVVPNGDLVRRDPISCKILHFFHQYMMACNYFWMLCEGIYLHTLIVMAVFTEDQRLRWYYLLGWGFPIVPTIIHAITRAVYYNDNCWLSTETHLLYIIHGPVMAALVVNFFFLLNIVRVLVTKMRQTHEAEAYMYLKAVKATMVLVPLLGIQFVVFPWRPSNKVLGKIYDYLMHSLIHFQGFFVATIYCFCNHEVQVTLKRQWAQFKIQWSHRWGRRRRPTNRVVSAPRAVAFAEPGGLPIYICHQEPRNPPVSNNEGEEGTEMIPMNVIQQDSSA
Excerpt: Peptide compounds of the present invention may be evaluated for agonist activity using the procedures described in Example B. The plasma membrane preparation of a 7-transmembrane-G-protein coupled receptor (GPCR) contains not only the receptor but also the G-proteins which constitute the first step in the intracellular signal transduction process when the receptor is activated by an agonist ligand. […] Agonist activation of a GPCR is accompanied by displacement of GDP by GTP from this site. Thus, measurement of the binding of a radiolabelled ligand, namely [^35 S]-GTPγS, for this binding site constitutes a measure of agonist potency for a given ligand. For agonism at the C1a receptor, a similar membrane preparation to that described below for the C1a binding studies is used. C1a pcDNA construction and transfection were carried out as previously described (Albrandt et al. 1993, FEBS Letters, 325:225-232). HEK293 cell lines showing stable expression of the rat C1a-type calcitonin receptor (C1a/293) or the human C1a-type calcitonin receptor (1154/293) were selected by G418 resistance and limiting dilution culture methods. Plasma membranes were collected from homogenized HEK293 cells and used in the [^35 S]-GTPγS assay. Individual test peptides at concentrations spanning 6 log units starting at around […] were examined for their ability to bind [^35 S]-GTPγS. Maximum agonist-specific binding was measured in the presence of 1 μM human calcitonin, constitutive binding was measured in the presence of buffer alone. Peptide potencies (EC50 's for concentration response curves) were calculated by non-linear regression using Prism™ (version 2.01, GraphPAD Software, San Diego, Calif.).
[^35 S]-GTPγS C1a Agonist Studies
Evaluation of the agonist activity of compounds versus the C1a receptor was carried out as follows:
(§1) Reference peptides used in these studies were purchased from Bachem (Torrance, Calif.). All other chemicals were of the highest commercial grade. [^35 S]-GTPγS was purchased from NEN Life Science Products, Inc., Pittsburgh, Pa. [^125 I]-human calcitonin was purchased from Amersham Pharmacia Biotech, Inc., Piscataway, N.J.
(§2) Methods for C1a pcDNA construction and transfection have been previously described (Albrandt, et al. 1993, FEBS Letters, 325:225-232). HEK293 cell lines stably expressing the rat C1a-type calcitonin receptor (C1a/293) or the human C1a-type calcitonin receptor (1154/293) were selected by G418 resistance and limiting dilution culture methods.
(§3) Confluent cells were detached from tissue culture flasks by incubation with 5 mM EDTA in PBS. Cells were homogenized in ice-cold 20 mM HEPES, pH 7.4 with a Polytron homogenizer. Plasma membranes were collected using three cycles of washing in fresh buffer followed by centrifugation for 15 minutes at 48,000×g. The final membrane pellet was resuspended in 20 mM HEPES buffer containing 0.2 mM phenylmethylsulfonyl fluoride (PMSF) and stored at -70° C.
Assay buffer contained 1 μM GDP, 1 mM EDTA, 5 mM MgCl2, 20 mM Hepes, and 150 mM NaCl, pH 7.4. Membranes (7.5 μg membrane protein/well), [^35 S]-GTPγS (200 pM), and peptides were combined in 200 μL buffer in 96-well microtiter plates. After a 75 minute incubation at room temperature, well contents were harvested onto GF/B glass fiber pads using a Tomtec Mach II plate harvestor (Hamden, Conn.). Dried pads were combined with scintillant and counted on a Wallac LKB Beta Plate scintillation counter. For concentration response curves, samples were run in duplicate over a 6 log concentration range starting at 10^-6 M or 10^-7 M. Maximum agonist-specific binding was measured in the presence of 1 μM human calcitonin, constitutive binding was measured in the presence of buffer alone.
Peptide potencies (1C50 's for competitive binding, and EC50 's for concentration response curves) were calculated by non-linear regression using Prism (version 2.01, GraphPAD Software, San Diego, Calif.).

[2] = biological target: T1, C1a receptor (C1a-type calcitonin receptor); experiment: C1a/293 competitive binding, displacement of [125I]-human calcitonin (Example C); conditions: HEK293 plasma membranes (C1a/293), [125I]-human calcitonin 20 pM
Procedure: Peptide compounds of the present invention may be evaluated for binding to the C1a receptor using the procedures described in Example C. The C1a receptor is the predominant mammalian calcitonin receptor subtype. C1a pcDNA construction and transfection were carried out as previously described (Albrandt et al. 1993, FEBS Letters, 325:225-232). HEK293 cell lines showing stable expression of the rat C1a-type calcitonin receptor (C1a/293) or the human C1a-type calcitonin receptor (1154/293) were selected by G418 resistance and limiting dilution culture methods. Plasma membranes were collected from homogenized HEK293 cells and used in the receptor binding assay. Individual test peptides at concentrations spanning 6 log units starting at around 10^-6 M were examined for their ability to displace [^125 I]-human calcitonin from the plasma membrane preparation using a 96-well microtiter plate format and scintillation counting with a Wallac LKB Beta plate counter. Competitive binding curves were constructed. Non-specific binding was measured in the presence of 100 nM calcitonin. Peptide potencies (IC50 's for competitive binding) were calculated by non-linear regression using Prism™ (version 2.01, GraphPAD Software, San Diego, Calif.).
C1a/293 Competitive Binding Studies:
Compounds were evaluated for competition in binding to the C1a receptor as follows:
as §1
as §2, with “1993).” for “1993, FEBS Letters, 325:225-232).”
as §3
Assay buffer contained 5 μg/mL bestatin, 1 μg/mL phosphoramidon, 1 mg/mL bovine serum albumin (fraction V), 1 mg/mL bacitracin, 1 mM MgCl2, and 20 mM HEPES, pH 7.4. Membranes (2-5 μg membrane protein/well), [^125 I]-human calcitonin (20 pM), and peptides were combined in 200 μL buffer in 96-well microtiter plates. After a 60 minute incubation at room temperature, well contents were harvested onto polyethyleneimine-treated GF/B glass fiber pads using a Tomtec Mach II plate harvestor (Hamden, Conn.). Dried pads were combined with scintillant and counted on a Wallac LKB Beta Plate scintillation counter (Gaithersburg, Md.). For competitive binding curves, samples were run in duplicate over a 6 log concentration range starting at 10^-6 or 10^-7 M. Non-specific binding was measured in the presence of 100 nM human calcitonin.

Compound: CC(C)C[C@H](NC(=O)[C@H](CCCNC(=N)N)NC(=O)[C@H](CCC(N)=O)NC(=O)[C@@H](NC(=O)[C@H](C)NC(=O)[C@@H]1CSSC[C@H](NC(=O)[C@@H](N)CCCCN)C(=O)N[C@@H](CC(N)=O)C(=O)N[C@@H]([C@@H](C)O)C(=O)N[C@@H](C)C(=O)N[C@@H]([C@@H](C)O)C(=O)N1)[C@@H](C)O)C(=O)N[C@@H](C)C(=O)N[C@@H](CC(N)=O)C(=O)N[C@@H](Cc1ccccc1)C(=O)N[C@@H](CC(C)C)C(=O)N[C@H](C(=O)N[C@@H](CCCNC(=N)N)C(=O)N[C@@H](CO)C(=O)N[C@@H](C)C(=O)NCC(=O)N[C@@H](Cc1ccc(O)cc1)C(N)=O)C(C)C [Example 15] (H-KCNTATCATQRLANFLVRSAGY-NH2; disulfide 2-7)
- EC50 [1]: 21 nM
- IC50 [2]: 18 nM

Compound: CC(C)CCC(=O)N[C@@H](CC(C)C)C(=O)N[C@@H](CO)C(=O)N[C@H](C(=O)N[C@@H](C)C(=O)N[C@@H](C)C(=O)N[C@H](C(=O)N[C@@H](C)C(=O)N[C@@H](CCCNC(=N)N)C(=O)N[C@@H](CC(C)C)C(=O)N[C@@H](C)C(=O)N[C@@H](C)C(=O)N[C@@H](Cc1ccccc1)C(=O)N[C@@H](CC(C)C)C(=O)N[C@@H](C)C(=O)N[C@@H](CCCNC(=N)N)C(=O)N[C@@H](CO)C(N)=O)[C@@H](C)O)[C@@H](C)O [Example 4] ({Pentanoyl(4-Me)}-LSTAATARLAAFLARS-NH2)
- EC50 [1]: 0.73 nM
- IC50 [2]: 0.66 nM

Compound: CC(C)C[C@H](NC(=O)[C@H](CCCNC(=N)N)NC(=O)[C@H](CCC(N)=O)NC(=O)[C@@H](NC(=O)[C@H](C)NC(=O)[C@@H]1CSSC[C@H](NC(=O)[C@@H](N)CCCCN)C(=O)N[C@@H](CC(N)=O)C(=O)N[C@@H]([C@@H](C)O)C(=O)N[C@@H](C)C(=O)N[C@@H]([C@@H](C)O)C(=O)N1)[C@@H](C)O)C(=O)N[C@@H](C)C(=O)N[C@@H](C)C(=O)N[C@@H](Cc1ccccc1)C(=O)N[C@@H](CC(C)C)C(=O)N[C@H](C(=O)N[C@@H](CCCNC(=N)N)C(=O)N[C@@H](CO)C(=O)N[C@@H](CO)C(=O)NCC(=O)N[C@@H](Cc1ccc(O)cc1)C(N)=O)C(C)C [Example 8] (H-KCNTATCATQRLAAFLVRSSGY-NH2; disulfide 2-7)
- EC50 [1]: 4.4 nM
- IC50 [2]: 3.4 nM

Compound: CC(C)C[C@H](NC(=O)[C@H](CCCNC(=N)N)NC(=O)[C@H](CCC(N)=O)NC(=O)[C@@H](NC(=O)[C@H](C)NC(=O)[C@@H]1CSSC[C@H](N)C(=O)N[C@@H](CC(N)=O)C(=O)N[C@@H]([C@@H](C)O)C(=O)N[C@@H](C)C(=O)N[C@@H]([C@@H](C)O)C(=O)N1)[C@@H](C)O)C(=O)N[C@@H](C)C(=O)N[C@@H](CC(N)=O)C(=O)N[C@@H](Cc1ccccc1)C(=O)N[C@@H](CC(C)C)C(=O)N[C@H](C(=O)N[C@@H](CCCNC(=N)N)C(=O)N[C@@H](CO)C(=O)N[C@@H](CO)C(=O)NCC(=O)N[C@@H](Cc1ccc(O)cc1)C(N)=O)C(C)C [Example 13] (H-CNTATCATQRLANFLVRSSGY-NH2; disulfide 1-6)
- EC50 [1]: 19 nM
- IC50 [2]: 12 nM

Compound: CC(C)C[C@H](NC(=O)[C@H](CCCNC(=N)N)NC(=O)[C@H](CCC(N)=O)NC(=O)[C@@H](NC(=O)[C@H](C)NC(=O)[C@@H]1CSSC[C@H](NC(=O)[C@@H](N)CCCCN)C(=O)N[C@@H](CC(N)=O)C(=O)N[C@@H]([C@@H](C)O)C(=O)N[C@@H](C)C(=O)N[C@@H]([C@@H](C)O)C(=O)N1)[C@@H](C)O)C(=O)N[C@@H](C)C(=O)N[C@@H](CC(N)=O)C(=O)N[C@@H](Cc1ccccc1)C(=O)N[C@@H](CC(C)C)C(=O)N[C@H](C(=O)N[C@@H](C)C(=O)N[C@@H](CO)C(=O)N[C@@H](CO)C(=O)NCC(=O)N[C@@H](Cc1ccc(O)cc1)C(N)=O)C(C)C [Example 12] (H-KCNTATCATQRLANFLVASSGY-NH2; disulfide 2-7)
- EC50 [1]: 8 nM
- IC50 [2]: 10 nM
